Measurements reported in patent US20240150396A1 (The Texas A&M University System, priority 2021, published 2024).
Several values for one entry are separate records, joined by “and”; a condition that tells them apart may be missing. Equal values may be shown once. Read-outs that look alike come from different tables or passages of the source. Residues, ends and D or L forms follow the SMILES beside them. *: point of attachment. AMC = Cc1cc(=O)oc2cc(N*)ccc12; Cbz = O=C(OCc1ccccc1)*

Key:
[1] = biological target: T1, cruzain (Trypanosoma cruzi, UniProt P25779); assay: biochemical; conditions: pH 7.5
Outline: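 Fluorogenic assay at 25 °C following AMC release (ex 360/em 460 nm), with typically 0.2 nM cruzain and 10% DMSO, at pH 7.5 or 5.5 buffer with 5 mM DTT.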

[2] = tested on: T. b. brucei procyclic forms; assay: Growth of axenic cultures of T. b. brucei procyclic forms (PCFs); assay type: cell-based, Trypanosoma brucei brucei; conditions: axenic culture, read-out: EC50 T. b. brucei PCF
[3] = tested on: T. b. brucei bloodstream forms; assay: Growth of axenic cultures of T. b. brucei bloodstream forms (BSFs)
[4] = biological target: human cathepsin B (Homo sapiens (Human), UniProt P07858); assay: Human cathepsin B inhibition, Z-FR-AMC assay; assay type: biochemical; conditions: pH 5.5, 25° C.
Experimental: (§1) Recombinant human cathepsins B and L were purchased from Millipore Sigma and used without further treatment. The solid proteins were dissolved into a solution of 50 mM sodium acetate (pH 5.5), 1 mM EDTA, 1 mM CHAPS, 10% (v/v) DMSO, and 5 mM DTT to final concentrations of […] in 20-mL aliquots, and stored at −80° C. until needed. These samples were then diluted into the same buffer to concentrations of −100 nM, and these dilutions were stored at 4° C. and used daily until depletion.
(§2) For assays of cathepsin L and B, inhibitors were evaluated in 0.25-mL reaction mixtures containing a buffer of sodium acetate (pH 5.5), 1 mM CHAPS, 1 mM Na2EDTA, and 5 mM DTT at 25° C. The fluorogenic substrate Cbz-Phe-Arg-7-amino-4-methyl-coumarin (Z-FR-AMC) was dissolved in 100% DMSO, as were all inhibitors, and aliquots of both substrates and inhibitors were added to reaction mixtures to final concentrations of DMSO of 10% (v/v). […] Formation of the fluorescent product AMC was monitored over 30-60-minute time courses for reaction mixtures in 96-well black microplates (Corning Costar®). Rates of peptidolysis of the dipeptide-AMC substrate(s) were measured on either a SpectraMax M5 (Molecular Devices) or a Synergy HTX (Biotek, Wisnooki, VT) microplate reader with λex=360 nm, λem=460 nm in ≥8-sec intervals. Control samples excluded substrate. The measured relative fluorescence units (RFUs) of generated AMC were converted to reaction rates of μM/s by use of a standard curve of known AMC concentrations obtained for both plate readers.

[5] = biological target: SARS-CoV-2 3CL protease (Severe acute respiratory syndrome coronavirus 2 (2019-nCoV) (SARS-CoV-2), UniProt P0DTD1); assay: biochemical; assay type: biochemical; conditions: for Ki: read-out: Ki* 3CLpro
[6] = biological target: human cathepsin L (Homo sapiens (Human), UniProt P07711); assay: Human cathepsin L inhibition, Z-FR-AMC assay; assay type: biochemical; conditions: for Ki: pH 5.5, 25° C.
Experimental: as §1, §2

[7] = tested on: trypanosomes (T. b. brucei, T. cruzi); assay: Anti-trypanosomal activity, culture not stated; assay type: cell-based; conditions: culture (T. b. brucei PCF/BSF or T. cruzi-infected cardiomyoblasts) not stated
[8] = tested on: SARS-CoV-2 in Vero E6 cells; assay: Anti-CoV-2 activity in Vero E6 cells; assay type: cell-based
[9] = biological target: T1, cruzain; conditions: 2% DMSO, from Ref. 40; cited from earlier work
[10] = biological target: T1, cruzain; assay: Kinetic parameters of peptide substrates for cruzain; assay type: biochemical; conditions: relative to Cbz-Phe-Arg-AMC
Experimental: All enzyme assays were performed at 25° C. Initial rates of the peptidolytic reaction catalyzed by cruzain were measured by monitoring the fluorescence generated by cleavage of the dipeptide-AMC bond. Assays were conducted in 96-well plates (Greiner; flat-bottom, clear black plates) in a total volume of 250 μL, containing either 50 mM MES (pH 7.5), 50 mM TAPSO, 100 mM DEA, 1 mM CHAPS, 1 mM Na2EDTA, 5 mM DTT, and 10% DMSO (v/v) or 50 mM sodium acetate (pH 5.5), 50 mM MES, 100 mM TEA, 1 mM CHAPS, 1 mM Na2EDTA, 5 mM DTT, and 10% DMSO (v/v). Substrates were dissolved in 100% DMSO and were then diluted 10-fold such that when added to reaction mixtures, final DMSO concentration was 10% (v/v). Reactions were initiated with the addition of 1-10 μL of cruzain (final concentrations: 0.1-3.0 nM (preincubation studies)). Fluorescence was measured on either a SpectraMax M5 (Molecular Devices) or a Synergy HTX (BioTek, Winooski, VT) microplate reader (λex=360 nm, λem=460 nm). Initial rates were determined from continuous kinetic time courses and calculated from the earliest time points, typically at less than 10 min.
Initial velocity data for cruzain-catalyzed reactions of fluorogenic peptide substrates were determined by fitting to eq 1 using GraphPad Prism 6.0 or SigmaPlot 12.0. For eq 1, kcat is the turnover number, [E]t is the concentration of active sites of cruzain, and Ka is the Michaelis constant for the substrate A. Cruzain concentrations were determined by spectrophotometric analysis of purified sample solutions as described.^44

[11] = tested on: T. cruzi epimastigotes (strain Y); assay: Growth of axenic cultures of T. cruzi epimastigotes
Experimental: Selected cruzain inhibitors in axenic cell cultures of Trypanosoma brucei brucei (procyclic trypomastigotes; ATCC PRA-381) and Trypanosoma cruzi (epimastigote forms; strain Y, ATCC 50832GFP) were tested. T. b. brucei is grown in SDM-79 medium, and T. cruzi is grown in ATCC medium (1029 LIT medium). Both media included fetal calf serum (10%) and penicillin/streptomycin (50 U/mL). […] T. brucei and T. cruzi (5 mL in flask cultures) at 26° C. were seeded at ˜3×10^6 cells, and diluted daily maintaining a mid-log growth phase for up to 100 hrs. Cell counts were scored using a Z2 Coulter Counter. After each cell dilution, fresh compound or an equal volume of DMSO (control samples), was supplemented into the cultures. […] Cruzain inhibitors where the highest concentration reflects the upper limit of solubilities of the inhibitors in 1% (v/v) DMSO solutions were evaluated. These inhibitors are likely to bind to proteins in fetal calf serum, and for these reasons, fresh inhibitors were added each time cells were re-fed.
Selected cruzain inhibitors were evaluated in axenic cell cultures of T. b. brucei and T. cruzi. Procyclic trypomastigotes of T. b. brucei (ATCC PRA-381) were grown in the SDM-79 medium at 26° C., and bloodstream forms (ATCC PRA-383) were grown at 37° C. in the HMI-9 medium at 5% C02. T. cruzi (epimastigote forms, strain Y, ATCC 50832GFP) was grown in the ATCC medium (1029 LIT medium). Both forms of T. b. brucei and T. cruzi were grown in media containing 10% fetal bovine serum (FBS) and penicillin/streptomycin (50 U mL^−1). […] Control samples contained equal amounts of DMSO. T. b. brucei and T. cruzi (5 mL in flask cultures) were seeded at ˜3×10^6 cells and diluted daily, maintaining a mid-log growth phase for up to 120 h. […] After each cell dilution, fresh compound or an equal volume of DMSO (control samples) was supplemented into the cultures, while maintaining a constant concentration of each inhibitor. Cell counts were scored using a Z2 Coulter Counter.

[12] = Host cell cytotoxicity in the T. cruzi infection model; assay type: cell-based, mouse; conditions: mouse; host cardiomyoblasts; read-out: C2C12 Cytotoxicity CC50
Experimental: (§3) The plates were incubated at 37° C. for 48 h, and the wells were fixed with 2% paraformaldehyde in PBS and stained with 5 μg mL-1 4,6-diamidino-2-phenylindole. After at least 30 min of incubation at room temperature in the dark, the plates were read in an automated microscope, ImageXpress Micro XL (Molecular Devices), and the images were analyzed by custom-built software to quantify and assess viability of the parasites, as well as the host cells independently. The compilation of data was used to calculate the antiparasitic activity (EC50) and host cytotoxicity (CC50).
T. cruzi infection was evaluated in C2C12 murine cardiomyoblast cells. […] The wells were fixed with 2% PFA in PBS, and stained by 5 μg/ml of DAPI. After >30 min of incubation in a dark environment, the plates were read on an ImageXpress MicroXL microscope (Molecular Devices). The images were analyzed to quantify parasites as well host cells.

[13] = tested on: human dermal fibroblasts; assay: Human cell toxicity, resazurin viability; assay type: cell-based; conditions: human dermal fibroblasts; read-out: Human Cell Cytotoxicity CC50
Experimental: Primary human dermal fibroblast (HDF) cells were used to evaluate human cell toxicity of cruzain inhibitors. HDF cells were plated in a 384-well plate at 2400 cells per well (62,000 cells mL^−1). Inhibitors in 100% DMSO were added in duplicate to final concentrations of 0.001-0.1 mM and 1% DMSO (v/v) with 1% DMSO as a control sample, and cells were cultured at 37° C. for 48 h, followed by the addition of resazurin. Cell viability was then assessed by reading of fluorescence (excitation/emission: 544 nm/590 nm) after an additional 24 h of incubation.

[14] = tested on: T. cruzi (Ca-I/72) in C2C12 murine cardiomyoblasts; assay: T. cruzi-infected murine cardiomyoblasts (C2C12); assay type: cell-based, Trypanosoma cruzi; conditions: read-out: EC50 T. cruzi-infected cardiomyoblasts
Experimental: as §3, with “For the evaluation of the antitrypanocidal activity of cruzain inhibitors, we infected a C2C12 mouse cardiomyoblast cell line (ATCC CRL-1772) with T. cruzi strain Ca-I/72 (a gift from James Dvorak, National Institutes of Health) in […] plates. […] The plates” for “The plates”
T. cruzi infection was evaluated in C2C12 murine cardiomyoblast cells. 384-microwell plates containing C2C12 murine cardiomyoblast cells were infected with 10^3 and 10^4 cells of T. cruzi (Ca-I/72), to which was added 3-fold serially-dilutions of inhibitor with maximal concentrations of 10 μM, followed by incubation at 37° C. for 2 days. The wells were fixed with 2% PFA in PBS, and stained by 5 μg/ml of DAPI. After >30 min of incubation in a dark environment, the plates were read on an ImageXpress MicroXL microscope (Molecular Devices). The images were analyzed to quantify parasites as well host cells.

[15] = Solubility of cruzain inhibitors in 10% DMSO, light scattering; assay type: physicochemical
Experimental: Synthetic PVHIs such as 5-16 and 22-24 at final concentrations of 1-200 μM were added to 0.25 mL solutions of 10% DMSO (v/v) in clear 96-well Greiner plates, and absorbance at 620 nm was measured using a BioTek M2 Synergy plate reader at t=0 and 120 min to evaluate increased light scattering and precipitated inhibitor.

[16] = obtained >10 minutes following initiation of reaction by addition of enzyme, read-out: Ki* Cruzain
[17] = read-out: EC50 T. b. brucei BSF, axenic culture
[18] = apparent tight-binding inhibition constant, 25° C., read-out: Ki*

T1 sequence (P25779 123-467 limits assumed): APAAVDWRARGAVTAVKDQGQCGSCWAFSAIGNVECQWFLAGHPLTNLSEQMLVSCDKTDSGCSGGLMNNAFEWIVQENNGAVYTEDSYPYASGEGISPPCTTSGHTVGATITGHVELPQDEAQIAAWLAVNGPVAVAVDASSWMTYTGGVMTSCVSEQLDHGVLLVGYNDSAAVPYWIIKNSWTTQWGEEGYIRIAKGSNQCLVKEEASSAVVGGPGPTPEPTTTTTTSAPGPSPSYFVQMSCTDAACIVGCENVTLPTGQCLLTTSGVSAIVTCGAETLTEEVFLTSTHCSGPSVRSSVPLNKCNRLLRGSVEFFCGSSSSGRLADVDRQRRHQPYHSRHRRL
Chain of human cathepsin L (P07711 114-333): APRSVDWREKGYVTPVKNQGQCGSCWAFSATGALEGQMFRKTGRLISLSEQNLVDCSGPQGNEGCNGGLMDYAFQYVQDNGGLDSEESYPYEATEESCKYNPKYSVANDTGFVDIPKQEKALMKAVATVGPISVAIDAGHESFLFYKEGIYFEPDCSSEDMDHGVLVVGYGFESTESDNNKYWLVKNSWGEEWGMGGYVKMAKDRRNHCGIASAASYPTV

Compound: O=C(NC(Cc1ccccc1)C(=O)NC1Cc2cc(Cl)ccc2OC1O)OCc1ccccc1 (centres unmarked) [Compound 33]
- Ki [1, 16]: 0.074 ± 0.01 µM
- EC50 [2]: 10 µM
- EC50 [3, 17]: 6 µM and 5.8 µM
- Ki ([4]; read-out: Ki* hCatB): 1.4 ± 0.1 µM
- Ki ([5]; pH 7.5): > 10 µM
- Ki ([6]; read-out: Ki* hCatL): 0.027 ± 0.0007 µM
- EC50 [7]: 6 to 10 µM

Compound: COc1ccc2c(c1)CC(NC(=O)C(Cc1ccccc1)NC(=O)OCc1ccccc1)C(O)O2 (centres unmarked) [Compound 31]
- Ki [1, 16]: 0.35 ± 0.03 µM
- EC50 [2]: 11 µM
- EC50 [3, 17]: 3 µM and 2.6 µM
- Ki ([4]; read-out: Ki* hCatB): 5.5 ± 0.4 µM
- Ki* 3CLpro [5]: not an inhibitor of 3CL protease
- Ki [5]: > 10 µM
- Ki ([6]; read-out: Ki* hCatL): 0.038 ± 0.002 µM
- EC50 [8]: 2.5 µM and 2.5 to 7.5 µM
- EC50 [7]: 3 to 11 µM

Compound: Cc1cc(=O)oc2cc(NC(=O)[C@H](CCCN=C(N)N)NC(=O)[C@H](CCCN=C(N)N)NC(=O)OCc3ccccc3)ccc12 [Compound S6, Cbz-Arg-Arg-AMC] (Cbz-Arg-Arg-{AMC})
- Km [9]: 3.7 ± 0.4 µM
- kcat [9]: 7.2 ± 0.1 s⁻¹
- kcat/Km [9]: 1.9e+06 ± 200000 M⁻¹ s⁻¹
- kcat rel [10]: 0.75

Compound: O=C(N[C@@H](Cc1ccccc1)C(=O)N[C@H](/C=C/c1ccccn1)CCc1ccccc1)OCc1ccccc1 [Compound 13, Benzyl ((S)-1-Oxo-3-phenyl-1-(((S,E)-5-phenyl-1-(pyridin-2-yl)-pent-1-en-3-yl)amino)propan-2-yl)carbamate]
- EC50 ([11]; Trypanosoma cruzi, read-out: T. cruzi axenic culture EC50, epimastigotes): > 20 µM
- T. cruzi axenic culture EC50 ([11]; epimastigotes): poorly effective
- CC50 at 48 h [12]: > 10 µM
- EC50 ([2]; Trypanosoma brucei): 5.5 µM
- EC50 [2]: > 10 µM
- EC50 ([3]; Trypanosoma brucei, read-out: EC50 T. b. brucei BSF, axenic culture): 4 ± 2 µM
- CC50 [13]: > 100 µM
- Ki ([4]; 10% DMSO, read-out: Ki* Human Cathepsin B): 6.5 ± 0.9 µM
- Ki ([6]; 10% DMSO, read-out: Ki* Human Cathepsin L): 1.9 ± 0.2 µM
- EC50 ([14]; C2C12 murine cardiomyoblasts): 5.9 ± 0.3 µM
- EC50 ([14]; Trypanosoma cruzi, C2C12, C2C12 murine cardiomyoblasts): 5 to 10 µM

Compound: COC(=O)c1ccc2c(c1)CC(NC(=O)C(Cc1ccccc1)NC(=O)OCc1ccccc1)C(O)O2 (centres unmarked) [Compound 35]
- EC50 ([11]; read-out: T. cruzi axenic culture EC50, epimastigotes): 2 to 20 µM
- Ki [1, 16]: 0.018 ± 0.0005 µM
- EC50 [2]: 6.7 µM
- Ki ([4]; read-out: Ki* hCatB): 0.67 ± 0.03 µM
- Ki ([5]; pH 7.5): > 10 µM
- inhibits cathepsin L more potently than cruzain [6]: 6 fold
- Ki ([6]; read-out: Ki* hCatL): 0.0108 ± 0.0008 µM
- EC50 [8]: 2.5 µM
- EC50 [7]: 3.5 to 6.7 µM
- EC50 ([14]; C2C12 murine cardiomyoblasts): 3.5 ± 0.3 µM

Compound: Cc1cc(=O)oc2cc(NC(=O)C(C)NC(=O)C(Cc3ccccc3)NC(=O)OCc3ccccc3)ccc12 (stereo not drawn) [Compound S12, Cbz-Phe-Ala-AMC]
- Km [9]: 38 ± 2 µM
- kcat [9]: 0.89 ± 0.06 s⁻¹
- kcat/Km [9]: 23000 ± 3000 M⁻¹ s⁻¹
- kcat rel [10]: 0.09

Compound: O=C(NC(Cc1ccccc1)C(=O)NC1Cc2cc(F)ccc2OC1O)OCc1ccccc1 (centres unmarked) [Compound 34]
- Ki [1, 16]: 0.048 ± 0.002 µM
- EC50 [2]: 11.1 µM
- EC50 [3, 17]: 2.7 µM
- Ki ([4]; read-out: Ki* hCatB): 2.3 ± 0.2 µM
- Ki ([5]; pH 7.5): > 10 µM
- Ki ([6]; read-out: Ki* hCatL): 0.023 ± 0.001 µM
- EC50 [8]: 4 µM and 2.5 to 7.5 µM
- EC50 [7]: 3 to 11 µM
- EC50 ([14]; C2C12 murine cardiomyoblasts): 3.5 µM and 3 to 5.7 µM

Compound: O=C(N[C@@H](Cc1ccccc1)C(=O)N[C@H](/C=C/c1ccccc1)Cc1ccccc1)OCc1ccccc1 [Compound 5, Benzyl ((S)-1-(((S,E)-1,4-Diphenylbut-3-en-2-yl)amino)-1-oxo-3-phenylpropan-2-yl)carbamate]
- Ki ([1]; apparent initial inhibition constant, 25° C., read-out: Ki): 1.8 ± 0.1 µM
- Ki [1, 18]: 0.87 µM
- aqueous solubility [15]: poor aqueous solubility

Compound: O=C(N[C@@H](Cc1ccccc1)C(=O)N[C@H](/C=C/c1ccc([N+](=O)[O-])cc1)Cc1ccccc1)OCc1ccccc1 [Compound 6, Benzyl ((S)-1-(((S,E)-4-(4-Nitrophenyl)-1-phenylbut-3-en-2-yl)-amino)-1-oxo-3-phenylpropan-2-yl)carbamate]
- Ki [1, 18]: 0.37 ± 0.02 µM
- aqueous solubility [15]: poor aqueous solubility
